Measurements as given in US20260216229A1, “PROGRAMMABLE DNA PROTEOLYSIS TARGET CHIMERAS AND METHODS OF THEIR USE” (ARIZONA BOARD OF REGENTS ON BEHALF OF ARIZONA STATE …, priority 2023, published 2026).
Values belong to the compound of their own block, whether it stands above or below them.

Target: T1, CDK6 (Homo sapiens, UniProt Q00534)
T1 construct: Western blot analysis of CDK6 degradation in U251 cells treated with distance-based DNA-PROTACs; endogenous in cells; host or cells: U-251 MG (U251) glioblastoma cells
Assay: Western blot of CDK6 degradation in U251 cells transfected with DNA-PROTACs
Format: cell-based
Settings: for CDK6 protein degradation (Western blot): 14-hour treatment
Description: U-251 MG Glioblastoma Cell Line was grown in Dulbecco's Modified Eagles Medium (DMEM) containing 10% heat inactivated fetal bovine serum (FBS), streptomycin (5 μg/mL) and 5 U/mL penicillin 95 U/mL). All cell lines were maintained, and cell culture experiments were carried out in humidified incubators at 37° C. and 5% CO2 supplementation.
One day prior to DNA-PROTACs transfection, cells were propagated into 6 cm cell culture dishes containing appropriate complete growth medium. Prior to transfection, complete medium was replaced with transfection medium (5% FBS, no Penstrep). DNA-PROTACs transfection was performed using lipofectamine 3000 reagent according to the protocols provided by the manufacture. All transfections were carried out in 6-cm dishes with 3 mL of media and concentrations of DNA-PROTACs were calculated according to this volume (3 mL). Briefly, for 50 nM concentration, 5 μL from a 30 µM DNA-PROTACs stock and 12 μL p3000 reagent was added to a tube containing 125 μL of OPTIM-MEM and 8 μL of Lipofectamine 3000 reagent was added to a separate tube containing 125 μL of OPTIM-MEM. Two tubes were incubated for 5 minutes at room temperature and DNA-PROTACs containing OPTI-MEM was then slowly added to the second tube with lipo3000. The solution in the tube was mixed well by pipetting up and down several times. After incubating for 15-20 minutes at room temperature, 250 μL of DNA-PROTACs-lipofectamine complex was added drop wise onto cells containing the transfection medium. Transfection medium was mixed well before transferring the plate into the incubator. After appropriate time, cells were either harvested or replaced with fresh medium and incubated for desired time point prior to harvesting. For proteasome inhibition assay, 5 μM of MG-132 was incubated with cells for 2 h prior to transfection of DNA-PROTACs. Then, cells were incubated for another 12 h before lysing cells. Cell lysates were prepared by incubating cells in RIPA lysis buffer (25 mM Tris pH 7.6, 150 mM NaCl, 1% NP40, 1% deoxycholate, 0.1% SDS, 1× protease inhibitor cocktail from Roche and 1 mM of PMSF) on ice for 30 minutes and cell lysate was clarified by centrifugation at high speed (15 000 rpm) for 15 minutes. Clear supernatant was collected for further experiments.
Protein concentration in all the cell lysates were measured by BCA protein assay kit and equal amounts from each lysate were mixed with 4×loading dye and boiled for 5 minutes followed by 2 minutes centrifugation prior to loading into SDS-PAGE gel. Next proteins on the SDS-PAGE gel were transferred to a Nitrocellulose membrane by western blotting and the membrane was blocked with 5% milk in TBST (0.05% Tween 20) for 1 h. Primary antibodies (all Abcam antibodies were diluted 1:5000) were prepared in TBST with 2.5% milk and membranes were incubated overnight at 4° C. On the following day, membrane was washes for 15 minutes (Incubate for three times, 5 minutes each) and appropriate secondary antibodies (1:5000) were prepared in TBST and incubated with the membrane for 1 h at room temperature (RT). Membrane was washed for 15 minutes with TBST (incubate for three times, […]) prior to imaging.
The degradation efficiency of various DNA-PROTACs was evaluated through their transfection into U251 cells, conducted simultaneously to ensure uniform experimental conditions. A double-stranded DNA sequence without any ligand was utilized as a negative control, providing a baseline for comparison. Following a 14-hour treatment period, a duration selected based on preliminary time-course studies, the cells were harvested using trypsin digestion. The lysates obtained were then subjected to SDS-PAGE, followed by Western blot analysis to assess protein degradation. […] This finding highlights the efficacy of DNA-PROTAC V02 in targeting and reducing CDK6 protein levels. In comparison, DNA-PROTAC Versions 03 and 04 also facilitated protein degradation, albeit with varying degrees of efficiency. […]

T1 sequence (Q00534 whole entry): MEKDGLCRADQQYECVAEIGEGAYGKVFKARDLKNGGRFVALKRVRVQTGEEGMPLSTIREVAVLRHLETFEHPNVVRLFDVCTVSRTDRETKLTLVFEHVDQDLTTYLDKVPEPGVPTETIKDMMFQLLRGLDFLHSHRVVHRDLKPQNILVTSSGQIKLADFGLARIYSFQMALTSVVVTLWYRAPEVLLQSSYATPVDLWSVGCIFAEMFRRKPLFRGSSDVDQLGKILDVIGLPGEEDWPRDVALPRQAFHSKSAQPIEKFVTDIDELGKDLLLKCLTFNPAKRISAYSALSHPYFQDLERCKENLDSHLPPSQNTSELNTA

Compound: A-minor-02: angular-series DNA duplex of E3-i strand SEQ ID NO 3 and POI-i strand SEQ ID NO 22 (chain 1 ACTCCATCTANTTCTACGCCA; chain 2 TGGCGTAGAATANGATGGAGT; E3 and POI ligands conjugated; modified_base 1 OTHER; Nucleotide with phosphorothioate linkage; modified_base 2 OTHER; modified_base 3 OTHER; misc_difference 11 E3 ligase attached to 3-Dimethoxytrityloxy-2-(3-(fluorenylmethoxycarbonylamino)propanamido)propyl-1-O-(2-cyanoethyl)-(N,N-diisopropyl)-phosphoramidite modified adenosine, cytidine, thymi; m)
CDK6 protein degradation (Western blot) (100 nM): substantial degradation

Compound: A-minor-03: angular-series DNA duplex of E3-i strand SEQ ID NO 3 and POI-i strand SEQ ID NO 23 (chain 1 ACTCCATCTANTTCTACGCCA; chain 2 TGGCGTAGAATNAGATGGAGT; E3 and POI ligands conjugated; modified_base 1 OTHER; Nucleotide with phosphorothioate linkage; modified_base 2 OTHER; modified_base 3 OTHER; misc_difference 11 E3 ligase attached to 3-Dimethoxytrityloxy-2-(3-(fluorenylmethoxycarbonylamino)propanamido)propyl-1-O-(2-cyanoethyl)-(N,N-diisopropyl)-phosphoramidite modified adenosine, cytidine, thymi; m)
concentration at which significant CDK6 degradation begins (14 hours, angular series): 20 nM

Compound: A-minor-01: angular-series DNA duplex of E3-i strand SEQ ID NO 3 and POI-i strand SEQ ID NO 21 (chain 1 ACTCCATCTANTTCTACGCCA; chain 2 TGGCGTAGAATAGNATGGAGT; E3 and POI ligands conjugated; modified_base 1 OTHER; Nucleotide with phosphorothioate linkage; modified_base 2 OTHER; modified_base 3 OTHER; misc_difference 11 E3 ligase attached to 3-Dimethoxytrityloxy-2-(3-(fluorenylmethoxycarbonylamino)propanamido)propyl-1-O-(2-cyanoethyl)-(N,N-diisopropyl)-phosphoramidite modified adenosine, cytidine, thymi; m)
CDK6 protein degradation (Western blot) (100 nM): substantial degradation

CDK6 protein levels (Western blot) (160 nM treatment): discernible reduction in protein levels
Compound: CC(=O)c1c(C)c2cnc(Nc3ccc(N4CCN(CCOCCOCCOCCNC(=O)COc5cccc6c5C(=O)N(C5CCC(=O)NC5=O)C6=O)CC4)cn3)nc2n(C2CCCC2)c1=O (centres unmarked) [BSJ-03-123, reference compound]

Compound: Version 04: DNA duplex of E3-i strand SEQ ID NO 3 and POI-i strand SEQ ID NO 6 (chain 1 ACTCCATCTANTTCTACGCCA; chain 2 TGGCNGTAGAATAGATGGAGT; E3 and POI ligands conjugated; modified_base 1 OTHER; Nucleotide with phosphorothioate linkage; modified_base 2 OTHER; modified_base 3 OTHER; misc_difference 11 E3 ligase attached to 3-Dimethoxytrityloxy-2-(3-(fluorenylmethoxycarbonylamino)propanamido)propyl-1-O-(2-cyanoethyl)-(N,N-diisopropyl)-phosphoramidite modified adenosine, cytidine, thymi; m)
CDK6 protein degradation (Western blot) (50 nM): more pronounced reduction in protein levels

Compound: Version 03: DNA duplex of E3-i strand SEQ ID NO 3 and POI-i strand SEQ ID NO 5 (chain 1 ACTCCATCTANTTCTACGCCA; chain 2 TGGCGTAGAATAGANTGGAGT; E3 and POI ligands conjugated; modified_base 1 OTHER; Nucleotide with phosphorothioate linkage; modified_base 2 OTHER; modified_base 3 OTHER; misc_difference 11 E3 ligase attached to 3-Dimethoxytrityloxy-2-(3-(fluorenylmethoxycarbonylamino)propanamido)propyl-1-O-(2-cyanoethyl)-(N,N-diisopropyl)-phosphoramidite modified adenosine, cytidine, thymi; m)
CDK6 protein degradation (Western blot) (100 nM): substantially reduce CDK6 protein levels

Compound: Version 05: DNA duplex of E3-i strand SEQ ID NO 18 and POI-i strand SEQ ID NO 20; largest ligand distance of approximately 60.2 Å (chain 1 ANCTCCATCTATTCTACGCCA; chain 2 TNGGCGTAGAATAGATGGAGT; E3 and POI ligands conjugated; modified_base 1 OTHER; Nucleotide with phosphorothioate linkage; misc_difference 2 E3 ligase attached to 3-Dimethoxytrityloxy-2-(3-(fluorenylmethoxycarbonylamino)propanamido)propyl-1-O-(2-cyanoethyl)-(N,N-diisopropyl)-phosphoramidite modified adenosine, cytidine, thymidine, guanosine, unknown or other nucleotide with phosphorothioate linkage; modified_base 3 OTHER; Nucleotide with phosphorothioate; misc_difference 2 Protein of interest attached to 3-Dimethoxytrityloxy-2-(3-(fluorenylmethoxycarbonylamino)propanamido)propyl-1-O-()
CDK6 protein degradation (Western blot) (50 nM and 100 nM, vs ligand-free dsDNA control): did not exhibit any discernible protein degradation

Compound: A-minor-00: angular-series DNA duplex of E3-i strand SEQ ID NO 3 and POI-i strand SEQ ID NO 5 (chain 1 ACTCCATCTANTTCTACGCCA; chain 2 TGGCGTAGAATAGANTGGAGT; pomalidomide and POI ligand conjugated; modified_base 1 OTHER; Nucleotide with phosphorothioate linkage; modified_base 2 OTHER; modified_base 3 OTHER; misc_difference 11 E3 ligase attached to 3-Dimethoxytrityloxy-2-(3-(fluorenylmethoxycarbonylamino)propanamido)propyl-1-O-(2-cyanoethyl)-(N,N-diisopropyl)-phosphoramidite modified adenosine, cytidine, thymi; m)
CDK6 protein degradation (Western blot) (concentration not given): marginal CDK6 degradation
